Measured values reported in patent publication US20230058316A1, “PEGYLATED IGE-DEPENDENT HISTAMINE-RELEASING FACTOR (HRF)-BINDING PEPTIDE AND USE THEREOF” (EWHA UNIVERSITY - INDUSTRY COLLABORATION FOUNDATION, priority 2020, published 2023).
Where no end group is shown, it is not given here.

Key:
recombinant HRF = target: T1, recombinant HRF (Homo sapiens, UniProt P13693); assay: Inhibition of IL-8 secretion by HRF in BEAS-2B cells; format: cell-based; settings: FIG. 7; for inhibition of IL-8 secretion by HRF: 0.75 nM and 7.5 nM with 75 nM recombinant HRF, 24 hours
T1 sequence (P13693 1-172): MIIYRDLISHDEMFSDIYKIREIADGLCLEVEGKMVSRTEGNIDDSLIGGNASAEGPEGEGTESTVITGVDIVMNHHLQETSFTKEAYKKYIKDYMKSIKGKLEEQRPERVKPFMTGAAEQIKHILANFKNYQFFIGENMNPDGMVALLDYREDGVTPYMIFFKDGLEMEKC
Method: The PEG (5000)-dTBP2 prepared in Preparative Example 4, Example 1, and Example 2 was diluted with 1% penicillin streptomycin/DMEM for each concentration (0, 0.75 nM, 7.5 nM), incubated with 75 nM recombinant HRF at room temperature for 15 minutes, and then treated to BEAS-2B cells grown to about 70% on a 48 well plate. The cells were cultured in a 37° C., 5% CO2 incubator for 24 hours, and the supernatant was obtained. Then, the released IL-8 was quantified by enzyme immunosorbent detection (Biolegend). The IL-8 enzyme immunosorbent detection was performed according to the protocol of Biolegend Human IL-8 ELISA kit with pre coated plates (431508). 300 μl of wash buffer was added to each well of the plate pre-coated with the IL-8 antibody, and the plate was washed a total of 4 times. Then, 50 μl of the supernatant was added to each well of the plate and left at room temperature for 2 hours. After 2 hours, the supernatant in the plate was removed, and 300 μl of wash buffer was added to each well of the plate. The plate was washed a total of 4 times, and then 100 μl of a detection antibody solution was added to each well of the plate and left at room temperature for 1 hour. Thereafter, 300 μl of wash buffer was added to each well of the plate, and the plate was washed a total of 4 times. Then, 100 μl of Avidin-HRP A solution was added to each well of the plate and left at room temperature for 30 minutes. Finally, 300 μl of wash buffer was added to each well of the plate, and after washing the plate 5 times, 100 μl of substrate solution F was added to each well of the plate and left at room temperature in a dark room. 100 μl of a stop solution was additionally added to each well of the plate, and absorbance was measured at 450 nm and 570 nm. The wash buffer, detection antibody solution, avidin HRP A solution, substrate solution F, and stop solution were all used as reagents included in a kit (431508, Biolegend).

ovalbumin-specific IgE = assay: Ovalbumin-specific IgE secretion in mouse plasma, ovalbumin-induced bronchial asthma and rhinitis mouse model; format: in vivo; settings: plasma, 1 mg/kg IP, 8 times daily for 8 days
Method: (§1) A bronchial asthma and rhinitis animal model was prepared by the following method. An ovalbumin solution was prepared by dissolving ovalbumin in an aluminum hydroxide solution (1 mg/ml) 28 and 14 days before the start of inducing bronchial asthma and rhinitis, and 200 μl of the solution was intraperitoneally injected into each mouse for sensitization. After 14 days of final sensitization, 20 μl of saline/PBS (normal control; NC) or 20 μl of 10 mg/mL ovalbumin solution (positive control; PC) was instilled into the nasal cavity of each lightly anesthetized mouse 4 times every other day for 8 days to induce bronchial asthma and rhinitis.
Ovalbumin is an allergy-causing substance mainly contained in egg whites. […] After completion of the experiment, the mouse was anesthetized by injecting a mixture of zoletil (250 mg/kg) and rompun (50 mg/kg) intraperitoneally, and the chest was opened. 0.8 mL blood was collected by puncture of the heart with a 26 gauge 1 mL syringe coated with heparin. The collected blood was centrifuged at 4° C., 3000 rpm for 10 minutes to obtain plasma components. The amount of ovalbumin-specific IgE in the blood serum obtained through the above process was measured and quantified by enzyme immunosorbent detection method using mouse OVA specific IgE kit (Biolegend, USA).
(§2) Next, in order to confirm whether there is an effect of inhibiting ovalbumin-specific IgE secretion in plasma even when administered in a small number of times, the dTBP2 of Preparative Example 4 and Example 3 was administered to the mouse model of Example 4-1 through intraperitoneal injection once in 4 days for a total of 2 times for 8 days inducing bronchial asthma and rhinitis. The amount of ovalbumin-specific IgE secretion was measured and quantified by the enzyme immunosorbent detection method in the same manner.
(§3) In addition, the dTBP2 of Preparative Example 4 and Example 3 was administered to the mouse model of Example 4-1 through intraperitoneal injection once on the 1st day of 8 days inducing bronchial asthma and rhinitis. The amount of ovalbumin-specific IgE secretion was measured and quantified by the enzyme immunosorbent detection method in the same manner.
The amount of ovalbumin-specific IgE secretion was measured and quantified by the enzyme immunosorbent detection method in the same manner.

IL-4 = IL-4 secretion in bronchoalveolar lavage fluid, ovalbumin-induced bronchial asthma and rhinitis mouse model; format: in vivo; settings: 1 mg/kg IP
Method: as §1
After the end of the experiment, the amount of IL-4 in the supernatant obtained by centrifuging bronchoalveolar lavage fluid was measured and quantified by enzyme immunosorbent detection using mouse IL-4 ELISA kit (Biolegend, USA).
as §2, with “inhibiting IL-4” for “inhibiting ovalbumin-specific IgE”, “secretion” for “secretion in plasma”, “of IL-4” for “of ovalbumin-specific IgE secretion”
as §3, with “IL-4” for “ovalbumin-specific IgE secretion”
The amount of IL-4 was measured and quantified by the enzyme immunosorbent detection method in the same manner.

IL-5 = IL-5 secretion in bronchoalveolar lavage fluid, ovalbumin-induced bronchial asthma and rhinitis mouse model; format: in vivo; settings: 1 mg/kg IP
Method: as §1
After the end of the experiment, the amount of IL-5 in the supernatant obtained by centrifuging bronchoalveolar lavage fluid was measured and quantified by enzyme immunosorbent detection using mouse IL-5 ELISA kit (Biolegend, USA).
as §2, with “inhibiting IL-5” for “inhibiting ovalbumin-specific IgE”, “secretion” for “secretion in plasma”, “of IL-5” for “of ovalbumin-specific IgE secretion”
as §3, with “IL-5” for “ovalbumin-specific IgE secretion”
The amount of IL-5 was measured and quantified by the enzyme immunosorbent detection method in the same manner.

[1] = test system: eosinophils in bronchoalveolar lavage fluid; assay: Eosinophil increase in bronchoalveolar lavage fluid, ovalbumin-induced bronchial asthma and rhinitis mouse model; format: in vivo; settings: 1 mg/kg IP, 8 times daily for 8 days, FIG. 9
Method: as §1
After anesthetizing the mouse by injecting a mixture of zoletil (250 mg/kg) and rompun (50 mg/kg) intraperitoneally, a 20-gauge catheter was inserted into the trachea by puncturing the trachea with a knife, and 0.6 mL of PBS at a time was injected-collected three times, and the collection rate was adjusted to 80%. The collected bronchoalveolar lavage fluid was centrifuged at 4° C., 3000 rpm for 10 minutes, and the cell precipitate was resuspended in 0.1 mL of PBS. 20 μL of the suspension was analyzed for the composition of blood cells using a fully automatic hematology analyzer (HEMAVET 950 FS, Drew Scientific, Inc.).

[2] = Pharmacokinetic analysis in ICR mice; format: in vivo; settings: mouse, plasma, IV, 10 mg/kg
Method: The dTBP2 of Preparative Examples 4 and Example 3 was added to a solution prepared in DMSO:PEG400:DW=5:55:40, and this was administered at the concentration of 5 mL/kg. Blood samples were taken at 0.083, 0.25, 0.5, 1, 2, 4, and 8 hours post injection. The blood was centrifuged at 4° C., 3000 rpm for 10 minutes, to which cold acetonitrile containing internal standard was added in an amount 4 times the plasma component, and then deproteinization was carried out. After centrifugation again at 4° C., 13000 rpm for 10 minutes, the supernatant was collected and analyzed by Agilent 6460 LC-MS/MS. Pharmacokinetic analysis was performed with Phoenix WinNonlin (Pharsight ver 6.4, USA) using a non-compartmental analysis model.

IL-13 = IL-13 secretion in bronchoalveolar lavage fluid, ovalbumin-induced bronchial asthma and rhinitis mouse model; format: in vivo; settings: 1 mg/kg IP, 8 times daily for 8 days, FIG. 18
Method: as §1
After the end of the experiment, the amount of IL-13 in the supernatant obtained by centrifuging bronchoalveolar lavage fluid was measured and quantified by enzyme immunosorbent detection using mouse IL-13 ELISA kit (R&D system, USA).
as §2, with “inhibiting IL-13” for “inhibiting ovalbumin-specific IgE”, “secretion” for “secretion in plasma”, “of IL-13” for “of ovalbumin-specific IgE secretion”
as §3, with “IL-13” for “ovalbumin-specific IgE secretion”
The amount of IL-13 was measured and quantified by the enzyme immunosorbent detection method in the same manner.

[3] = Metabolic stability in mouse liver microsomes; settings: NADPH, 37° C., 30 minutes
Method: (§4) Upon completion of the reaction, cold acetonitrile containing internal standard was added, and then deproteinization was carried out. The reactant was centrifuged at 4° C., 4000 rpm for 15 minutes, and the supernatant was analyzed by LC-MS/MS. The system was verified with buspirone, a reference material.

[4] = Metabolic stability in human liver microsomes; settings: pH 7.4
Method: as §4

## Methoxy polyethylene glycol propionaldehyde (5000) [Preparative Example 1]
Recombinant HRF
  inhibition of IL-8 secretion by HRF: effective

## WYVYPSM [Preparative Example 4, WYVYPSM, reference compound]
ovalbumin-specific IgE
  inhibiting ovalbumin-specific IgE secretion in plasma (in words): very effective
ovalbumin-specific IgE; FIG. 22
  reduction of ovalbumin-specific IgE secretion: about 50%
IL-4; 8 times daily for 8 days, FIG. 14
  reduction of IL-4 secretion: about 50%
IL-4; once on the 5th day of 8 days, FIG. 17
  IL-4 secretion inhibitory effect: weak
IL-5; 8 times daily for 8 days, FIG. 10
  reduction of IL-5 secretion: about 25%
IL-5; once on the 5th day of 8 days, FIG. 13
  IL-5 secretion inhibitory effect: weak
[1]
  reduction of increased eosinophils vs positive control: about 40%
[2]
  AUC(0-inf): 30 ng·h/mL
  AUC(0-t): 20 ng·h/mL
[2]; read-out: T1/2 (half life) (converted)
  half-life: 1.91 h
[2]; read-out: Vss (steady-state volume of distribution)
  Vd: 783 L/kg
IL-13
  reduction of IL-13 secretion: about 30%

## Example 2: dTBP2 (WYVYPSM) conjugated at the C-terminal with methoxy polyethylene glycol hydrazide (5 kDa) (WYVYPSM-{mPEG hydrazide 5 kDa})
Recombinant HRF
  inhibition of IL-8 secretion by HRF: effective

## Example 1: dTBP2 (WYVYPSM) conjugated at the N-terminal with methoxy polyethylene glycol propionaldehyde (5 kDa) ({mPEG propionaldehyde 5 kDa}-WYVYPSM)
Recombinant HRF
  inhibition of IL-8 secretion by HRF: effective
  inhibitory effect on the IL-8 secretion by HRF, comparison among the tested peptides: best

## O=C1CC2(CCCC2)CC(=O)N1CCCCN1CCN(c2ncccn2)CC1 [Buspirone, buspirone]
[3]
  Mouse (%) remaining after reaction: 0.10%
[4]
  remaining at 0.5 h: 6.15%
